Test results published in article PMC10442743 (Dalton Transactions (Cambridge, England : 2003), 2023).
Where two headings read alike, the source gives them in different places.

What was measured:
[1] = system: MDA-MB-231; test: MTT cytotoxicity assay, MDA-MB-231 cells; format: cell-based, human
Procedure: (§1) The cytotoxicity of 1–11CA was assessed against human breast cancer MCF-7 and MDA-MB-231 cells, and non-tumorigenic adherent mouse fibroblast connective tissue L929 cells using the MTT assay after 24 and 72 h (Tables S5 ^† and Table 1, respectively).
(§2) Then, necessary dilutions were made using the supplement DMEM, to prepare the range of tested concentrations. Since DMSO was used to solubilize the compounds, a supplemented DMEM + DMSO (at the same percentage as in the sequential dilutions) was considered as a control in the 3-[4,5-dimetylthiazole-2-yl]-2,5-diphenyltetrazolium bromide (MTT) assay.
(§3) L929, MCF-7, and MDA-MB-231 cell lines were cultured in DMEM supplemented with 10% (v/v) FBS and 1% (v/v) of penicillin–streptomycin. The cells were incubated in a humidified chamber at 37 °C under saturated air with a 5% CO2 atmosphere. Cells were passed at 80%–90% of confluency with 0.25% (w/v) trypsin and the cell culture media was changed every 2–3 days.
(§4) The compounds were tested on two breast cancer cell lines (MCF-7 and MDA-MB-231) and L929 fibroblasts, used as a reference for the safety evaluation according to ISO 10993-1:2009 “Biological evaluation of medical devices”. Cells were seeded on sterile 96-well plates at 50 000 cells per well (L929) and 20 000 cells per well (MCF-7 and MDA-MB-231) in supplemented DMEM medium (100 μL) for 24 h. The culture medium was removed and new media containing different concentrations of the compounds (0–1000 μM) was added to the wells (100 μL). Control cells were incubated under the same conditions in the absence of a compound. Cells were incubated for 24 and 72 h under the same conditions described above. Then, the medium was removed, and the cells were incubated with 3-(4,5-dimethylthiazol-2-yl)-2,5-diphenyltetrazolium bromide (MTT; 0.5 mg mL^−1) for 3 h. After this time, the medium was removed, and formazan crystals were solubilized with DMSO (100 μL per well). The absorbance in each well was read on a SynergyTM HT Multimode microplate reader (BioTek Instruments; Winooski, VT, USA) at 570 and 630 nm (for background correction), and the cell viability was calculated according to the following equation (eqn (1)):1 [drawing 3] where OD570(sample) and OD630(sample) are the optical densities of the solutions containing the compounds and OD570(control) and OD630(control) are controls without compound.
(§5) Each apoptosis value determination represents the mean ± standard deviation of 2 independent assays. The IC50 values were obtained using GraphPad Prism software and ANOVA (analysis of variance) was performed to determine the statistical difference between the IC50 values of different cell lines.

[2] = system: MCF-7; test: MTT cytotoxicity assay, MCF-7 cells; format: cell-based, human
Procedure: as §1, §2, §3, §4, §5

[3] = system: L929; test: MTT cytotoxicity assay, L929 fibroblasts (and selectivity index); format: cell-based, mouse; details: for SI (selectivity index): IC50 L929 divided by average IC50 of the breast cancer cell lines
Procedure: as §1, §2, §3, §4, §5

[4] = Solubility in water (ICP-MS); details: 25 °C, limit of detection = 5 ppt
Procedure: sonication, the mixtures were stirred at 25 °C for 1 h. The saturated solutions were filtered
to remove any insoluble solids, dissolved in 0.5 mL of MilliQ water, and analyzed using
ICP-MS. Samples were submitted to acidic digestion with 2 mL of concentrated HNO3
min to heat to 100°C and keep at 100°C for 60 min. After the digestion, the sample
volumes were precisely adjusted to 5 mL with MilliQ water. Samples were further diluted
30 times with 2% HNO3 solution and their Ru content was analyzed by ICP-MS using
standard mode on NexIon 350 D ICP-MS instrument (PerkinElmer). Yttrium was added
as an internal standard at a concentration of 2 ppb to all the solution and Ru quantitation
was performed using an external calibration curve with standards in the 0.05-50 ppb

[5] = Molar conductivity in acetonitrile; format: physicochemical; details: 1 mM in acetonitrile, 25 °C
Procedure: The molar conductivity (ΛM, reported as S·cm2·mol–1) of solutions of 11CA in acetonitrile (1 mM) were measured in a Radiometer Copenhagen CDM92 equipped with a conductivity cell CDC641T glass platinum electrode at room temperature (25 °C). The conductivity of the pure solvent was used as standard controls.
Table S3. Solubility in water at 25 °C, n-octanol/water partition coefficient and molar conductivity of the 11CA. * below limit of detection = 5 ppt.

[6] = n-octanol/water partition coefficient (shake-flask, ICP-MS)
Procedure: The saturated solutions were filtered
(DigiPREP Jr. 15ml, 40 Pos, SCP Science). The digestion program was the following: 15
After the digestion, the sample
Samples were further diluted
range. All measurements were performed in triplicates.
lipophilicity of a compound. This assay was performed following the Shake-flask method
organic and aqueous phase. Aliquots of each phase were taken and analyzed separately
range. The partition coefficient was calculated as P!"=
respectively. All measurements were performed in triplicates.

[7] = system: ctDNA; test: Circular dichroism / induced circular dichroism with calf thymus DNA; details: DNA, 24 h, 37 °C
Procedure: Calf thymus (ct) DNA (Merck®) was used to perform the circular dichroism assay to detect conformational changes in the ctDNA induced by the compounds. CD spectral data was collected on a Chirascan™ V100 (Applied Photophysics) spectropolarimeter equipped with a large area Avalanche photodiodes detector and computer-controlled thermoelectrical cell holder using a 1 cm path length quartz cuvette. CD spectra of ctDNA in the absence and presence of different concentrations of 11Cl were recorded at wavelengths ranging from 320 to 190 nm under constant nitrogen flush at 25 °C. For each CD spectrum, the number of scans was set to 5, and spectral data were collected at 0.1 ms intervals. Additionally, methyl green (MG) and 4′,6-diamidino-2-phenylindole (DAPI), and propidium iodide (PI) were analyzed as minor and major groove binders and as an intercalator, respectively, to help identify the binding mode of 11Cl to DNA. Samples were prepared in 10 mM Tris-HCl buffer (pH 7.6) with 1 mM EDTA. The concentration of ctDNA was fixed at 100 μM (concerning base pairs) and the ctDNA to 11Cl ratio was varied between 0 and 1. The samples were incubated for 24 h at 37 °C and then analyzed in the CD spectropolarimeter.

[8] = 24 h exposure, MTT, read-out: IC50 (µM) (average ± standard deviation) 24 h MDA-MB-231
[9] = 72 h exposure, MTT, read-out: IC50 (μM) (average ± standard deviation) 72 h MDA-MB-231
[10] = 24 h exposure, MTT, read-out: IC50 (µM) (average ± standard deviation) 24 h MCF-7
[11] = 72 h exposure, MTT, read-out: IC50 (μM) (average ± standard deviation) 72 h MCF-7
[12] = 24 h exposure, MTT, read-out: IC50 (µM) (average ± standard deviation) 24 h L929
[13] = 72 h exposure, MTT, read-out: IC50 (μM) (average ± standard deviation) 72 h L929
[14] = sodium counteranion salts, 24 h, read-out: IC50 in MDA-MB-231 cell line Mean ± SD 24 h
[15] = sodium counteranion salts, 72 h, read-out: IC50 in MDA-MB-231 cell line Mean ± SD 72h
[16] = sodium counteranion salts, 24 h, read-out: IC50 in MCF-7 cell line Mean ± SD 24 h
[17] = sodium counteranion salts, 72 h, read-out: IC50 in MCF-7 cell line Mean ± SD 72h
[18] = sodium counteranion salts, 24 h, read-out: IC50 in L929 cell line Mean ± SD 24 h
[19] = sodium counteranion salts, 72 h, read-out: IC50 in L929 cell line Mean ± SD 72h

Compound | IC50 [1, 8] | IC50 [1, 9] | IC50 [2, 10] | IC50 [2, 11] | SI (selectivity index) ([3]; 24 h) | IC50 [3, 12] | SI (selectivity index) ([3]; 72 h) | IC50 [3, 13] | IC50 [1, 14] | IC50 [1, 15] | IC50 [2, 16] | IC50 [2, 17] | IC50 [3, 18] | IC50 [3, 19] | also measured
Cc1c(C)c(C)[c-](C)c1C.[Cl][Ru+]([PH]12CN3CN(CN(C3)C1)C2)[PH]12CN3CN(CN(C3)C1)C2 [Compound 2] | 286 ± 7 µM | 63 ± 3 µM | 403 ± 9 µM | 51 ± 6 µM | 1.6 | 537 ± 29 µM | 1.1 | 64 ± 4 µM | – | – | – | – | – | – | –
C[NH+](C)Cc1ccccc1.[Cl-].[Cl][Ru]([Cl])[PH]12CN3CN(CN(C3)C1)C2 [Compound 3] | 357 ± 7 µM | 60 ± 3 µM | 463 ± 19 µM | 51 ± 4 µM | 1.8 | 749 ± 45 µM | 1.5 | 84 ± 5 µM | – | – | – | – | – | – | –
Cc1ccc(C(C)C)cc1.[Br][Ru]([Br])[PH]12CN3CN(CN(C3)C1)C2 [Compound 6] | 388 ± 12 µM | 63 ± 5 µM | 376 ± 15 µM | 74 ± 7 µM | 1.8 | 670 ± 60 µM | 1.2 | 82 ± 3 µM | – | – | – | – | – | – | –
Cc1ccc(C(C)C)cc1.O=C1[O][Ru]([PH]23CN4CN(CN(C4)C2)C3)[O]C1=O [Compound 7] | 513 ± 16 µM | 83 ± 5 µM | 407 ± 17 µM | 62 ± 4 µM | – | 570 ± 18 µM | – | 104 ± 4 µM | – | – | – | – | – | – | –
Cc1ccc(CCC(=O)O)cc1.O=C1[O][Ru]([PH]23CN4CN(CN(C4)C2)C3)[O]C1=O [Compound 8] | 284 ± 7 µM | 50 ± 2 µM | 213 ± 8 µM | 41 ± 5 µM | – | 572 ± 33 µM | – | 50 ± 3 µM | – | – | – | – | – | – | –
Cc1ccccc1.[Cl][Ru]([Cl])[PH](c1ccccc1)(c1ccccc1)c1ccccc1 [Compound 9] | 164 ± 2 µM | 44 ± 3 µM | 304 ± 19 µM | 52 ± 7 µM | 2.3 | 544 ± 12 µM | 1.5 | 70 ± 4 µM | – | – | – | – | – | – | Solubility (μM) [4]: 65 ± 8 µM; Solubility (μg/mL) [4]: 34 ± 4 µg/mL
Cc1cccc[c]1[Ru+]([Cl])([PH](c1ccccc1)(c1ccccc1)c1ccccc1)[PH](c1ccccc1)(c1ccccc1)c1ccccc1.F[B-](F)(F)F [Compound 11BF4] | 4.3 ± 0.4 µM | 0.19 ± 0.01 µM | 5.4 ± 0.6 µM | 0.14 ± 0.01 µM | 0.8 | 3.8 ± 0.4 µM | 6.8 | 1.13 ± 0.05 µM | – | – | – | – | – | – | Conductivity (molar conductivity) [5]: 124 S·cm2/mol; LogPow [6]: 1.60 ± 0.20; Solubility (μM) [4]: 5 ± 2 µM; Solubility (μg/mL) [4]: 4 ± 1 µg/mL
Cc1cccc[c]1[Ru+]([Cl])([PH](c1ccccc1)(c1ccccc1)c1ccccc1)[PH](c1ccccc1)(c1ccccc1)c1ccccc1.O=[N+]([O-])[O-] [Compound 11NO3] | 4.6 ± 0.3 µM | 0.109 ± 0.009 µM | 5.9 ± 0.5 µM | 0.078 ± 0.005 µM | 0.7 | 3.7 ± 0.4 µM | 11.1 | 1.04 ± 0.05 µM | – | – | – | – | – | – | Conductivity (molar conductivity) [5]: 141 S·cm2/mol; LogPow [6]: 1.57 ± 0.29; Solubility (μM) [4]: 268 ± 42 µM; Solubility (μg/mL) [4]: 218 ± 34 µg/mL
Cc1cccc[c]1[Ru+]([Cl])([PH](c1ccccc1)(c1ccccc1)c1ccccc1)[PH](c1ccccc1)(c1ccccc1)c1ccccc1.F[P-](F)(F)(F)(F)F [Compound 11PF6] | 5 ± 0.1 µM | 0.16 ± 0.01 µM | 3 ± 0.3 µM | 0.15 ± 0.01 µM | 2.5 | 10 ± 1 µM | 1.1 | 0.17 ± 0.01 µM | – | – | – | – | – | – | Conductivity (molar conductivity) [5]: 150 S·cm2/mol; LogPow [6]: 1.91 ± 0.23; Solubility (μM) [4]: 0.6 ± 0.2 µM; Solubility (μg/mL) [4]: 0.6 ± 0.2 µg/mL
F[B-](F)(F)F.[Na+] [NaBF4, reference compound] | – | – | – | – | – | – | – | – | > 2000 µM | 347 ± 19 µM | > 2000 µM | 343 ± 39 µM | 923 ± 77 µM | 386 ± 49 µM | –
c1ccc([B-](c2ccccc2)(c2ccccc2)c2ccccc2)cc1 [NaBPh4, reference compound] | – | – | – | – | – | – | – | – | 441 ± 61 µM | 149 ± 13 µM | 217 ± 44 µM | 102 ± 14 µM | 186 ± 11 µM | 55 ± 4 µM | –
[Cl-].[Na+] [NaCl, reference compound] | – | – | – | – | – | – | – | – | > 2000 µM | 398 ± 38 µM | > 2000 µM | 280 ± 33 µM | 782 ± 55 µM | 274 ± 31 µM | –
O=[N+]([O-])[O-].[Na+] [NaNO3, reference compound] | – | – | – | – | – | – | – | – | > 2000 µM | 334 ± 23 µM | > 2000 µM | 262 ± 38 µM | > 1000 µM | 331 ± 57 µM | –
O=S(=O)([O-])C(F)(F)F.[Na+] [NaOTf, reference compound] | – | – | – | – | – | – | – | – | > 2000 µM | 354 ± 27 µM | > 2000 µM | 279 ± 30 µM | > 1000 µM | 159 ± 20 µM | –
F[P-](F)(F)(F)(F)F.[Na+] [NaPF6, reference compound] | – | – | – | – | – | – | – | – | > 1000 µM | 329 ± 17 µM | > 2000 µM | 311 ± 27 µM | 759 ± 77 µM | 297 ± 24 µM | –
[F][Sb-]([F])([F])([F])([F])[F].[Na+] [NaSbF6, reference compound] | – | – | – | – | – | – | – | – | 689 ± 61 µM | 236 ± 13 µM | > 1000 µM | 234 ± 24 µM | 693 ± 53 µM | 180 ± 22 µM | –
CC[N+](C)(CC)CCC[n+]1c(-c2ccccc2)c2cc(N)ccc2c2ccc(N)cc21.[I-].[I-] [PI, propidium iodide] | – | – | – | – | – | – | – | – | – | – | – | – | – | – | CD band 220 nm (hydrogen bonding), intensity change [7]: Unchanged; CD band 220 nm (hydrogen bonding), wavelength shift [7]: Blue shift; CD band 246 nm (helicity), intensity change [7]: Hyperchromic; CD band 246 nm (helicity), wavelength shift [7]: Unchanged; CD band 268−280 nm (base-pair stacking interactions), intensity change [7]: Hyperchromic; CD band 268−280 nm (base-pair stacking interactions), wavelength shift [7]: Unchanged
